Test results as given in US20250353857A1, “COMPOUND ACTIVE AS INHIBITOR OF COLONY STIMULATION FACTOR-1 RECEPTOR (CSF-1 R)” (priority 2022, published 2025).

Molecular target: CSF1R (Homo sapiens (Human), UniProt P07333)
Experiment: CSF1R enzymatic inhibitory assay (Invitrogen Z'-LYTE, FRET);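 further: kinase phosphorylates a tyrosine on a coumarin/fluorescein FRET peptide, a protease cuts peptide left unphosphorylated, inhibition quantified from the donor-to-acceptor emission ratio with excitation at 400 nm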
Type: biochemical
Details: Z'-LYTE assay, ATP concentration equal to Km, average of at least 2 titration curves; read-out: CSF1R (IC50)

Chain of CSF1R (P07333 20-972): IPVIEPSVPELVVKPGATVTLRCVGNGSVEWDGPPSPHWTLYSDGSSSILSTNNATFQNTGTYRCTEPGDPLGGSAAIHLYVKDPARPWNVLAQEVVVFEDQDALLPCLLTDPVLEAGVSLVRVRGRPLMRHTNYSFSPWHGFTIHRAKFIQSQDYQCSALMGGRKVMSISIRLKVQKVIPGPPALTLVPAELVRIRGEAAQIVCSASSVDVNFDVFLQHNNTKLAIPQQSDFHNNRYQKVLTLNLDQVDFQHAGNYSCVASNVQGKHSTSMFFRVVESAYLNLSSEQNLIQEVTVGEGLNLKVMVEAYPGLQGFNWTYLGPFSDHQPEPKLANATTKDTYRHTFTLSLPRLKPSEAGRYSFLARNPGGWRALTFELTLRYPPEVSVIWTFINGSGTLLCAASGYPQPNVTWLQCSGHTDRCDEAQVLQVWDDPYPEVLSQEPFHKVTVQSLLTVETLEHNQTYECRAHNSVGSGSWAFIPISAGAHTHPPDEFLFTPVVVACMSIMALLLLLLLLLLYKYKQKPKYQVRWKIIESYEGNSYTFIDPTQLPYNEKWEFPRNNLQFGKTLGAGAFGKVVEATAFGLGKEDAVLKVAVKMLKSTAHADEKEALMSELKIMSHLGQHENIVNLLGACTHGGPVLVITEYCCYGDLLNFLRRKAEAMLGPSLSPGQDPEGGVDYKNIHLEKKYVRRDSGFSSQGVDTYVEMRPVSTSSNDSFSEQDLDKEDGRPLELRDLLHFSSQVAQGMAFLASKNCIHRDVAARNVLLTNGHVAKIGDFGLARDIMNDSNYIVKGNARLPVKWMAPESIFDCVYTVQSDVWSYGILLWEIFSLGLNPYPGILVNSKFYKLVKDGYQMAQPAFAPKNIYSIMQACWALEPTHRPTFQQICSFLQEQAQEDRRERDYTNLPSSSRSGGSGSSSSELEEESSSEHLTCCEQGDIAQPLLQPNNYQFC

SMILES | IC50
Cc1cccc(CN(C)c2ncnc3[nH]c(-c4ccc(P(C)(C)=O)cc4)cc23)c1 [LR-2-116, Dimethyl(4-(4-(methyl(3-methylbenzyl)amino)-7H-pyrrolo[2,3-d]pyrimidin-6-yl)phenyl)phosphine oxide] | < 0.2 nM
NC1NC=Nc2[nH]c(-c3ccc(CO)cc3)cc21 (centres unmarked) [TIA05-102] | 85 nM
CN(Cc1c(Cl)cccc1Cl)c1ncnc2[nH]c(-c3ccc(CN4CCOCC4)cc3)cc12 [LR-2-094 (2), N-(2,6-Dichlorobenzyl)-N-methyl-6-(4-(morpholinomethyl)phenyl)-7H-pyrrolo[2,3-d]pyrimidin-4-amine] | 8.7 ± 1.1 nM
COc1ccc(-c2cc3c(NCc4ccccc4)ncnc3[nH]2)cc1 [JK-356, N-Benzyl-6-(4-methoxyphenyl)-7H-pyrrolo[2,3-d]pyrimidin-4-amine] | 6.2 ± 0.4 nM
CN(Cc1ccccc1)c1ncnc2[nH]c(-c3ccccc3O)nc12 [TIA073, 2-(6-(Benzyl(methyl)amino)-9H-purin-8-yl)phenol] | 3.4 ± 0.2 nM
CN(Cc1c(F)cccc1F)c1ncnc2[nH]c(-c3ccccc3)cc12 [SH-01-127, N-(2,6-Difluorobenzyl)-N-methyl-6-phenyl-7H-pyrrolo[2,3-d]pyrimidin-4-amine] | 9.2 ± 3.3 nM
Cc1cccc(CN(C)c2ncnc3[nH]c(-c4ccc(-c5nnn[nH]5)cc4)cc23)c1 [FAB 02-14, 6-(4-(1H-Tetrazol-5-yl)phenyl)-N-methyl-N-(3-methylbenzyl)-7H-pyrrolo[2,3-d]pyrimidin-4-amine] | 3 nM
CN(Cc1ccccc1Cl)c1ncnc2[nH]c(-c3ccc(CN4CCOCC4)cc3)cc12 [LR-2-091 (2), N-(2-Chlorobenzyl)-N-methyl-6-(4-(morpholinomethyl)phenyl)-7H-pyrrolo[2,3-d]pyrimidin-4-amine] | 1.4 ± 0.2 nM
Cc1ccc(F)c(CN(C)c2ncnc3[nH]c(-c4ccc(CN5CCOCC5)cc4)cc23)c1F [SH-01-128, N-(2,6-Difluoro-3-methylbenzyl)-N-methyl-6-(4-(morpholinomethyl)phenyl)-7H-pyrrolo[2,3-d]pyrimidin-4-amine] | 0.8 nM
CN(Cc1cccc(Cl)c1)c1ncnc2[nH]c(-c3ccc(CN4CCOCC4)cc3)cc12 [LR-2-088 (3), N-(3-Chlorobenzyl)-N-methyl-6-(4-(morpholinomethyl)phenyl)-7H-pyrrolo[2,3-d]pyrimidin-4-amine] | 0.9 ± 0.9 nM
OCc1ccc(-c2cc3c(N4CCCC4c4ccccc4)ncnc3[nH]2)cc1 (centres unmarked) [TIA05-178, (4-(4-(2-Phenylpyrrolidin-1-yl)-7H-pyrrolo[2,3-d]pyrimidin-6-yl)phenyl)methanol] | 0.7 ± 0.1 nM
C[C@H](c1ccccc1)N(C)c1ncnc2[nH]c(-c3ccccc3)cc12 [KUL01-093, (R)—N-Methyl-6-phenyl-N-(1-phenylethyl)-7H-pyrrolo[2,3-d]pyrimidin-4-amine] | 54 ± 5 nM
COc1ccc(-c2cc3c(N4CCCC4C)ncnc3[nH]2)cc1 (centres unmarked) [MS1-60-134, 6-(4-Methoxyphenyl)-4-(2-methylpyrrolidin-1-yl)-7H-pyrrolo[2,3-d]pyrimidine] | 0.7 ± 0.1 nM
COc1cccc(CN(C)c2ncnc3[nH]c(-c4ccc(CO)cc4)nc23)c1 [TIA03-014, N-(3-Methoxybenzyl)-N-methyl-8-(4-(hydroxymethyl)phenyl)-9H-purin-6-amine] | 2.7 ± 0.1 nM
CN(Cc1cccnc1)c1ncnc2[nH]c(-c3ccc(CO)cc3)nc12 [TIA03-016, N-Methyl-N-(pyridin-3-ylmethyl)-8-(4-(hydroxymethyl)phenyl)-9H-purin-6-amine] | 3.8 ± 0.4 nM
COc1ccc(-c2cc3c(N4CCCC4)ncnc3[nH]2)cc1 [MS-46-93, 6-(4-Methoxyphenyl)-4-(pyrrolidin-1-yl)-7H-pyrrolo[2,3-d]pyrimidine] | 1.1 ± 0.1 nM
CN(Cc1ccccc1)c1ncnc2[nH]ccc12 [TIA04-067, N-Benzyl-N-methyl-7H-pyrrolo[2,3-d]pyrimidin-4-amine] | 68 ± 2 nM
CN(CC1CCN(Cc2ccccc2)CC1)c1ncnc2[nH]c(-c3ccc(CO)cc3)nc12 [TIA04-053, N-Methyl-N-(1-benzylpiperidin-4-ylmethyl)-8-(4-(hydroxymethyl)phenyl)-9H-purin-6-amine] | 130 ± 12 nM
Cc1cccc(CN(C)c2ncnc3[nH]c(-c4cnn(C(C)C)c4)cc23)c1 [LR-2-108, 6-(1-Isopropyl-1H-pyrazol-4-yl)-N-methyl-N-(3-methylbenzyl)-7H-pyrrolo[2,3-d]pyrimidin-4-amine] | 0.4 ± 0.3 nM
CCOc1ccccc1-c1nc2c(N(C)Cc3ccccc3)ncnc2[nH]1 [JKS01-057, N-Benzyl-8-(2-ethoxyphenyl)-N-methyl-9H-purin-6-amine] | > 1000 nM
Cc1cccc(CN(C)c2ccnc3[nH]ccc23)c1 [CJ1_78] | > 500 nM
Cc1cccc(CN(C)c2ncnc3[nH]c(-c4ccc(C5(O)COC5)cc4)cc23)c1 [LR-2-060-1, 3-(4-(4-(Methyl(3-methylbenzyl)amino)-7H-pyrrolo[2,3-d]pyrimidin-6-yl)phenyl)oxetan-3-ol] | 0.3 nM
CN(Cc1ccccn1)c1ncnc2[nH]c(-c3ccc(CO)cc3)nc12 [TIA02-164, N-Methyl-N-(pyridin-2-ylmethyl)-8-(4-(hydroxymethyl)phenyl)-9H-purin-6-amine] | 11 ± 3 nM
OCc1ccc(-c2nc3c(NCc4ccccc4)ncnc3[nH]2)cc1 [TIA098, (4-(6-(Benzylamino)-9H-purin-8-yl)phenyl)methanol] | 43 ± 6 nM
Cc1cccc(CN(C)c2ncnc3[nH]c(-c4ccc(C(O)(CO)CO)cc4)cc23)c1 [LR-2-060-2, 2-(4-(4-(Methyl(3-methylbenzyl)amino)-7H-pyrrolo[2,3-d]pyrimidin-6-yl)phenyl)propane-1,2,3-triol] | 3 nM
Cc1cccc(CN(C)c2ncnc3[nH]ccc23)c1 [TIA04-069, N-Methyl-N-(3-methylbenzyl)-7H-pyrrolo[2,3-d]pyrimidin-4-amine] | 35 nM
Cc1ccc(CN(C)c2ncnc3[nH]c(-c4ccc(CO)cc4)nc23)cc1 [TIA02-174, N-Methyl-N-(4-methylbenzyl)-8-(4-(hydroxymethyl)phenyl)-9H-purin-6-amine] | 12 ± 1 nM

More lines, now with the values ahead:

IC50 | SMILES
3.5 ± 2.2 nM | CN(Cc1cccc(F)c1)c1ncnc2[nH]c(-c3ccc(CO)cc3)nc12 [TIA02-132, N-Methyl-N-(3-fluorobenzyl)-8-(4-(hydroxymethyl)phenyl)-9H-purin-6-amine]
2.3 ± 0.2 nM | CN(Cc1ccccc1F)c1ncnc2[nH]c(-c3ccc(CO)cc3)nc12 [TIA02-130, N-Methyl-N-(2-fluorobenzyl)-8-(4-(hydroxymethyl)phenyl)-9H-purin-6-amine]
61 ± 3 nM | COc1ccc(CN(C)c2ncnc3[nH]c(-c4ccc(CO)cc4)nc23)cc1 [TIA03-078, N-(4-Methoxybenzyl)-N-methyl-8-(4-(hydroxymethyl)phenyl)-9H-purin-6-amine]
> 50 nM | CCN(Cc1ccccc1)c1ncnc2[nH]c(-c3ccc(OC)cc3)nc12 [EH-93, N-Benzyl-N-ethyl-8-(4-methoxyphenyl)-9H-purin-6-amine]
85 ± 10 nM | c1ccc(CNc2ncnc3[nH]c(-c4ccccc4)nc23)cc1 [TIA099, N-Benzyl-8-phenyl-9H-purin-6-amine]
5.7 ± 0.3 nM | COc1ccc(CN(C)c2ncnc3[nH]c(-c4ccc(CO)cc4)nc23)cc1OC [TIA03-080, N-(3,4-Dimethoxybenzyl)-N-methyl-8-(4-(hydroxymethyl)phenyl)-9H-purin-6-amine]
3 ± 0.6 nM | CN(Cc1cccs1)c1ncnc2[nH]c(-c3ccc(CO)cc3)nc12 [TIA03-066, N-Methyl-N-(thiophen-2-ylmethyl)-8-(4-(hydroxymethyl)phenyl)-9H-purin-6-amine]
3 nM | OCC(O)(CO)c1ccc(-c2cc3c(N4CCCC4C4CCOCC4)ncnc3[nH]2)cc1 (centres unmarked) [LR-2-052-2]
11 ± 2 nM | CN(Cc1cccc(C(F)(F)F)c1)c1ncnc2[nH]c(-c3ccc(CO)cc3)nc12 [TIA03-108, N-Methyl-N-(3-trifluoromethylbenzyl)-8-(4-(hydroxymethyl)phenyl)-9H-purin-6-amine]
3 nM | OC1(c2ccc(-c3cc4c(N5CCCC5C5CCOCC5)ncnc4[nH]3)cc2)COC1 (centres unmarked) [LR-2-067]
0.7 ± 0.2 nM | CN(CC1CCCCC1)c1ncnc2[nH]c(C3=CCCCC3)nc12 [TIA03-186, 8-(Cyclohex-1-en-1-yl)-N-(cyclohexylmethyl)-N-methyl-9H-purin-6-amine]
1.8 nM | Cc1ccccc1CN(C)c1ncnc2[nH]c(-c3ccc(CO)cc3)nc12 [TIA03-136, N-Methyl-N-(2-methylbenzyl)-8-(4-(hydroxymethyl)phenyl)-9H-purin-6-amine]
707 ± 79 nM | CN(Cc1ccccc1)c1ncnc2sc(-c3ccc(CO)cc3)cc12 [BAHO-3-107, (4-(4-(Benzyl(methyl)amino)thieno[2,3-d]pyrimidin-6-yl)phenyl)methanol]
0.7 ± 0.1 nM | CN(Cc1ccccc1)c1ncnc2[nH]c(-c3ccccc3)nc12 [TIA072, N-Benzyl-N-methyl-8-phenyl-9H-purin-6-amine]
> 1000 nM | CC(C)N(Cc1ccccc1)c1ncnc2[nH]c(-c3ccc(CO)cc3)nc12 [EH02-21, (4-(6-(Benzyl(isopropyl)amino)-9H-purin-8-yl)phenyl)methanol]
1.2 nM | CN(Cc1c(F)cccc1F)c1ncnc2[nH]c(-c3ccc(CN4CCOCC4)cc3)cc12 [SH-01-129, N-(2,6-Difluorobenzyl)-N-methyl-6-(4-(morpholinomethyl)phenyl)-7H-pyrrolo[2,3-d]pyrimidin-4-amine]
108 ± 7 nM | CN(Cc1ccccc1)c1ncnc2[nH]cnc12 [TIA008, N-Benzyl-N-methyl-9H-purin-6-amine]
9.1 ± 1.1 nM | Cc1ccc(F)c(CN(C)c2ncnc3[nH]c(-c4ccccc4)cc23)c1F [SH-01-126, N-(2,6-Difluoro-3-methylbenzyl)-N-methyl-6-phenyl-7H-pyrrolo[2,3-d]pyrimidin-4-amine]
2.2 nM | CN(Cc1cccnc1)c1ncnc2[nH]c(-c3ccccc3)nc12 [TIA109, N-Methyl-8-phenyl-N-(pyridin-3-ylmethyl)-9H-purin-6-amine]
2.7 ± 0.4 nM | CN(Cc1cc(Cl)ccc1Cl)c1ncnc2[nH]c(-c3ccc(CN4CCOCC4)cc3)cc12 [LR-2-123, N-(2,5-Dichlorobenzyl)-N-methyl-6-(4-(morpholinomethyl)phenyl)-7H-pyrrolo[2,3-d]pyrimidin-4-amine]
